ChEMBL document CHEMBL1131775, “The synthesis of water soluble prodrugs analogs of echinocandin B” (1999)
Values after ≈ are worked out from the molar mass of the structure shown. Starred links: 1 amine or outer side, 2 acyl side, 3 side chain; linkers in the order of their positions; H or OH if unused. Positions of bridges follow the written chain, without caps; N, C: chain ends. Non-standard residues stand in square brackets, D forms with d. Residues, ends and D or L forms follow the SMILES beside them. *: point of attachment. pTerphenylCO(4''-OnC5H11) = CCCCCOc1ccc(-c2ccc(-c3ccc(C(=O)*)cc3)cc2)cc1; Orn(4R-OH,5R-OH) = O=C([C@H](C[C@@H](O)[C@@H](O)N[*:3])N[*:1])[*:2]; hTyr(3S-OH,4S-OH) = N[C@H](C(=O)O)[C@H](O)[C@@H](O)c1ccc(O)cc1; X1 = COP(=O)(O)Oc1ccc(C[C@@H](O)[C@H](N[*:1])C(=O)[*:2])cc1; Orn(4R-OH) = O=C([C@H](C[C@@H](O)CN[*:3])N[*:1])[*:2]; Pro(3S-OH,4S-Me) = C[C@H]1CN[C@H](C(=O)O)[C@H]1O; Hyp = O=C(O)[C@@H]1C[C@@H](O)CN1

How the values were obtained:
Candida albicans [1] = experiment: In vitro antifungal activity against candida albicans; assay type: functional
Candida albicans [2] = experiment: In vitro antifungal activity against candida albicans after intraperitoneal administration of the compound; assay type: functional; settings: ip

| SMILES | MIC (Candida albicans [1]) [µg/mL] | ED50 (Candida albicans [2]) [mg/kg] |
| --- | --- | --- |
| CCCCCOc1ccc(-c2ccc(-c3ccc(C(=O)N[C@H]4C[C@@H](O)CNC(=O)[C@@H]5[C@@H](O)[C@@H](C)CN5C(=O)[C@H]([C@@H](C)O)NC(=O)[C@H]([C@H](O)Cc5ccc(OP(=O)(O)OC)cc5)NC(=O)[C@@H]5C[C@@H](O)CN5C(=O)[C@H]([C@@H](C)O)NC4=O)cc3)cc2)cc1 ({pTerphenylCO(4''-OnC5H11)}-[Orn(4R-OH)]T[Hyp][X1]T[Pro(3S-OH,4S-Me)]; lactam 1-C) | 0.312 (≈ 0.26 µM) | 0.47 |
| CCCCCOc1ccc(-c2ccc(-c3ccc(C(=O)N[C@H]4C[C@@H](O)[C@@H](O)NC(=O)[C@@H]5[C@@H](O)[C@@H](C)CN5C(=O)[C@H]([C@@H](C)O)NC(=O)[C@H]([C@H](O)[C@@H](O)c5ccc(O)cc5)NC(=O)[C@@H]5C[C@@H](O)CN5C(=O)[C@H]([C@@H](C)O)NC4=O)cc3)cc2)cc1 [ANIDULAFUNGIN] ({pTerphenylCO(4''-OnC5H11)}-[Orn(4R-OH,5R-OH)]T[Hyp][hTyr(3S-OH,4S-OH)]T[Pro(3S-OH,4S-Me)]; lactam 1-C) | 0.01 (≈ 0.00877 µM) | 0.32 |
